A short description of series [1]: Simulated Intestinal Fluid (SIF) Stability Assay. Type of series: in vitro ADME. As to conditions: porcine pancreatin, 37° C. As for the experimental part: Simulated Intestinal Fluid (SIF) Stability Assay
Studies were carried out in simulated intestinal fluid (SIF) to evaluate intestinal stability of the peptide molecules of the instant invention. To prepare the SIF reagent, blank FASSIF was prepared by dissolving 0.348 g NaOH, 3.954 g sodium phosphate monobasic monohydrate and 6.186 g NaCl in a final volume of 1 liter water (final pH=6.5). To this solution, 24 g porcine pancreatin (Sigma catalog P7545) was added and stirred for 30 minutes (final pancreatin concentration is 2.4%). The solution was filtered through a cheese cloth and a No. 1 Whatman filter, and 10 ml aliquots were stored at −70° C. To run the reaction, a 10 ml aliquot was thawed at 37° C., and 125 μl aliquots were removed and mixed with an equal volume of blank FASSIF. The peptide stock solution (10 mM in 100% DMSO) was diluted 75-fold in blank FASSIF. A 50 μl aliquot of the diluted peptide was combined with 125 μl pancreatin (2.4%) and 125 μl blank FASSIF to yield final concentrations of 1% pancreatin and 22 μM peptide. The reactions were incubated at 37° C., and at various time points 50 μl aliquots were removed and added to 200 μl of quench solution containing 50% acetonitrile, 50% methanol, 5% formic acid, and 1 μg/ml internal standard. The quenched samples were centrifuged at 10,000 rpm for 10 minutes, and the supernatants were analyzed by LCMS/MS. The percent remaining at each time point was calculated based on the peak area response ratio of test to compound to internal standard. Half-lives were calculated by fitting to a first-order exponential decay equation using GraphPad. A small sampling of the results of these studies is provided and discussed herein and in the accompanying figures.

The next series concerns the target T1, RPMI 8866 cells (Homo sapiens, UniProt P13612+P26010).
T1 sequence (P13612 34-1032): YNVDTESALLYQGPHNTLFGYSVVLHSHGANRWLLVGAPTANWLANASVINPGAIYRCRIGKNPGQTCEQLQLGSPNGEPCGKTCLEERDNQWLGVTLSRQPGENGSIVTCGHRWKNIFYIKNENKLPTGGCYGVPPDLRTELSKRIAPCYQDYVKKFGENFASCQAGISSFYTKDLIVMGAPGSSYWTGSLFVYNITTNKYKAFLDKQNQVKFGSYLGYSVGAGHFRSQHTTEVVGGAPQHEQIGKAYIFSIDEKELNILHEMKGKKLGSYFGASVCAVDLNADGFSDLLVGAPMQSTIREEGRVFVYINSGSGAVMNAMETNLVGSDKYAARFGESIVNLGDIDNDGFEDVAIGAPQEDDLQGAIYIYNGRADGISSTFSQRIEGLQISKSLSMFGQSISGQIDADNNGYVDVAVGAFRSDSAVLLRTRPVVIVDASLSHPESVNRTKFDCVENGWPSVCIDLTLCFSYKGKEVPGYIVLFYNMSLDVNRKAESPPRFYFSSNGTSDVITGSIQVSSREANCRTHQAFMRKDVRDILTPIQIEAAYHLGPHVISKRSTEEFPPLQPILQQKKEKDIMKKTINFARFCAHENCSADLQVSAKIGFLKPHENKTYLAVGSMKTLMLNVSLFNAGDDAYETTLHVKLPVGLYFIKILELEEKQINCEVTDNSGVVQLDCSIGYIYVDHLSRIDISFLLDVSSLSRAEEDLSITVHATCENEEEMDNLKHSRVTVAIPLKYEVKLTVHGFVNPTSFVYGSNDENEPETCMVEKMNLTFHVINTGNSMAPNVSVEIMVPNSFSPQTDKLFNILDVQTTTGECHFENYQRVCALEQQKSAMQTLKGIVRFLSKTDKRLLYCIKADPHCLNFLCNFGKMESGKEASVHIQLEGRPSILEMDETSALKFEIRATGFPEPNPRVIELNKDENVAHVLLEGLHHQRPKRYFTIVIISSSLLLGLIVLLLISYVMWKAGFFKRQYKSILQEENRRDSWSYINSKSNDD
T1 sequence (P26010 20-798): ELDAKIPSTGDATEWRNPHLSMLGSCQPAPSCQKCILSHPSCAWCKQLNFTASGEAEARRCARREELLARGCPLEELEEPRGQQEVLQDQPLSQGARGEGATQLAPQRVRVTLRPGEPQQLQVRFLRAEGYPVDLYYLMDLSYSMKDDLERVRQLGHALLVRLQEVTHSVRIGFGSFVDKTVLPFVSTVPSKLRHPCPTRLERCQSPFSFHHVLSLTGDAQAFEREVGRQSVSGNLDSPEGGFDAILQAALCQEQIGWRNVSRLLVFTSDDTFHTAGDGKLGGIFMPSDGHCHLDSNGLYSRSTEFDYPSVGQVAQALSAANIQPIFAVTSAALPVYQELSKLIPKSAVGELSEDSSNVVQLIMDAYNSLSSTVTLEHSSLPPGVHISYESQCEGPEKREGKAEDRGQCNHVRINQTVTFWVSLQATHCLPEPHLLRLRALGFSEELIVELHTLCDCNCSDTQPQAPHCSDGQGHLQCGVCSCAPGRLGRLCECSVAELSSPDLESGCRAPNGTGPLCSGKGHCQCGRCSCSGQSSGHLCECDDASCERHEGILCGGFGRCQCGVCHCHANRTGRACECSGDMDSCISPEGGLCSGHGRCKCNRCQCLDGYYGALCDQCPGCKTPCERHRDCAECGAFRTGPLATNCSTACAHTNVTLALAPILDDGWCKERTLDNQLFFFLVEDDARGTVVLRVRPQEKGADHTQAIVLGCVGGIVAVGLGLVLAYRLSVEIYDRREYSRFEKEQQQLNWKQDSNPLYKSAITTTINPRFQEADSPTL
Description: α4β7-MAdCAM Cell Adhesion Assay. The class given is cell-based. As to conditions: thioether monomer peptides, Table 6; read-out: Cell-Adhesion A4B7. The essentials:
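RPMI 8866 cells (200,000/well) in DMEM with 1 mM MnCl2 and 0.1% BSA were allowed to adhere 30-45 min at 37° C to plates coated with rh MAdCAM-1/Fc (200 ng/well) in presence of serially diluted peptide. After washing, bound cells quantified by MTT, absorbance 570 nm, cell-free background subtracted.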

Where [2] appears, read: simulated gi fluid, monomers, Table 6.
[3] abbreviates: simulated gi fluid, dimers, Table 7.

*1 amine or outer side, *2 acyl side, *3 side chain or, on linkers, in order; H or OH if unused. Where a SMILES comes first, the peptide text is derived from it. Bridges are numbered along the chain shown (N, C = ends). [ ]: non-standard residue; d: D form. Phe(3-Me) = Cc1cccc(C[C@H](N)C(=O)O)c1; Phe(4-Me) = Cc1ccc(C[C@H](N)C(=O)O)cc1; Phe(2-Me) = Cc1ccccc1C[C@H](N)C(=O)O; NMeR = CN[C@@H](CCCNC(=N)N)C(=O)O; β3hE = N[C@@H](CCC(=O)O)CC(=O)O; X1 = O=C(c1ccccc1C[*:2])[*:1]; Pen = CC(C)(S)[C@H](N)C(=O)O Bounds are passed on as bounds.

A word on the half-life: it is how long it takes for the measured level to halve. Lower therefore signals rapid decline. With `CC(C)C[C@@H]1NC(=O)[C@H]([C@@H](C)O)NC(=O)[C@H](CC(=O)O)NC(=O)[C@H](CO)NC(=O)[C@H](CCCNC(=N)N)N(C)C(=O)c2ccccc2CSC(C)(C)[C@@H](C(=O)N[C@@H](Cc2c[nH]c3ccccc23)C(=O)N[C@H](CCC(=O)O)C(=O)N[C@H](CCCCN)C(N)=O)NC1=O` [compound 60] (HELM PEPTIDE1{[meR].S.D.T.L.[Pen].W.[dE].[dK].[am]}|CHEM1{[O=C(c1ccccc1C[*:2])[*:1]]}$PEPTIDE1,CHEM1,1:R1-1:R1|PEPTIDE1,CHEM1,6:R3-1:R2$$$V2.0), in series [1] (setting [2]), the half-life is > 3 h.

Take `CC(C)C[C@@H]1NC(=O)[C@H]([C@@H](C)O)NC(=O)[C@H](CC(=O)O)NC(=O)[C@H](CO)NC(=O)[C@H](CCCNC(=N)N)N(C)C(=O)c2ccccc2CSC(C)(C)[C@@H](C(=O)N[C@@H](Cc2c[nH]c3ccccc23)C(=O)N[C@@H](Cc2ccc(O)cc2)C(=O)N(C)[C@@H](CCCCN)C(N)=O)NC1=O` [compound 63] (HELM PEPTIDE1{[meR].S.D.T.L.[Pen].W.Y.[meK].[am]}|CHEM1{[O=C(c1ccccc1C[*:2])[*:1]]}$PEPTIDE1,CHEM1,1:R1-1:R1|PEPTIDE1,CHEM1,6:R3-1:R2$$$V2.0): the half-life in series [1] (setting [2]) is > 3 h.

As to `CCCC[C@@H]1NC(=O)[C@H]([C@@H](C)O)NC(=O)[C@H](CC(=O)O)NC(=O)[C@H](CO)NC(=O)[C@H](CCCNC(=N)N)N(C)C(=O)c2ccccc2CSC(C)(C)[C@@H](C(=O)N[C@@H](Cc2c[nH]c3ccccc23)C(=O)N[C@@H](CCC(=O)O)C(=O)N[C@H](CCCCN)C(N)=O)NC1=O` [compound 64] (HELM PEPTIDE1{[meR].S.D.T.[Nle].[Pen].W.E.[dK].[am]}|CHEM1{[O=C(c1ccccc1C[*:2])[*:1]]}$PEPTIDE1,CHEM1,1:R1-1:R1|PEPTIDE1,CHEM1,6:R3-1:R2$$$V2.0), the half-life in series [1] (setting [2]) is 2.98 h.

For the molecule `CC(C)C[C@@H]1NC(=O)[C@H]([C@@H](C)O)NC(=O)[C@H](CC(=O)O)NC(=O)[C@H](CO)NC(=O)[C@H](CCCNC(=N)N)N(C)C(=O)c2ccccc2CSC(C)(C)[C@@H](C(=O)N[C@@H](Cc2ccccc2)C(=O)N[C@H](CCC(=O)O)C(=O)N[C@H](CCCCN)C(N)=O)NC1=O` [compound 65] (HELM PEPTIDE1{[meR].S.D.T.L.[Pen].F.[dE].[dK].[am]}|CHEM1{[O=C(c1ccccc1C[*:2])[*:1]]}$PEPTIDE1,CHEM1,1:R1-1:R1|PEPTIDE1,CHEM1,6:R3-1:R2$$$V2.0), in series [1] (setting [2]), the half-life is > 3 h.

In the case of `Cc1cccc(C[C@H](NC(=O)[C@H]2NC(=O)[C@H](CC(C)C)NC(=O)[C@H]([C@@H](C)O)NC(=O)[C@H](CC(=O)O)NC(=O)[C@H](CO)NC(=O)[C@H](CCCNC(=N)N)N(C)C(=O)c3ccccc3CSC2(C)C)C(=O)N[C@@H](CCC(=O)O)CC(N)=O)c1` [compound 125] ([NMeR]SDTL[Pen][Phe(3-Me)][β3hE]-NH2; linker N-6 via X1), the IC50 at RPMI 8866 cells is < 25 nM. In addition, the half-life in series [1] (pig, monomers, Table 6) was > 3 h.

Take `Cc1ccccc1C[C@H](NC(=O)[C@H]1NC(=O)[C@H](CC(C)C)NC(=O)[C@H]([C@@H](C)O)NC(=O)[C@H](CC(=O)O)NC(=O)[C@H](CO)NC(=O)[C@H](CCCNC(=N)N)N(C)C(=O)c2ccccc2CSC1(C)C)C(=O)N[C@@H](CCC(=O)O)CC(N)=O` [compound 126] ([NMeR]SDTL[Pen][Phe(2-Me)][β3hE]-NH2; linker N-6 via X1): the IC50 at RPMI 8866 cells was 25 to 100 nM. The half-life in series [1] (pig, monomers, Table 6) was > 3 h.

As for `Cc1ccc(C[C@H](NC(=O)[C@H]2NC(=O)[C@H](CC(C)C)NC(=O)[C@H]([C@@H](C)O)NC(=O)[C@H](CC(=O)O)NC(=O)[C@H](CO)NC(=O)[C@H](CCCNC(=N)N)N(C)C(=O)c3ccccc3CSC2(C)C)C(=O)N[C@@H](CCC(=O)O)CC(N)=O)cc1` [compound 132] ([NMeR]SDTL[Pen][Phe(4-Me)][β3hE]-NH2; linker N-6 via X1), on RPMI 8866 cells, the IC50 was < 25 nM. Besides, the half-life in series [1] (pig, monomers, Table 6) is > 3 h.

Regarding `CC(C)C[C@@H]1NC(=O)[C@H]([C@@H](C)O)NC(=O)[C@H](CC(=O)O)NC(=O)[C@H](CO)NC(=O)[C@H](CCCNC(=N)N)N(C)C(=O)c2ccccc2CSC(C)(C)[C@@H](C(=O)N[C@@H](Cc2c[nH]c3ccccc23)C(=O)N[C@@H](CCC(=O)O)C(=O)N[C@H](CCCCN)C(N)=O)NC1=O` [compound 146] (HELM PEPTIDE1{[meR].S.D.T.L.[Pen].W.E.[dK].[am]}|CHEM1{[O=C(c1ccccc1C[*:2])[*:1]]}$PEPTIDE1,CHEM1,1:R1-1:R1|PEPTIDE1,CHEM1,6:R3-1:R2$$$V2.0), the half-life in series [1] (setting [3]) was < 0.333 h.

For the molecule `CC(C)C[C@@H]1NC(=O)[C@H]([C@@H](C)O)NC(=O)[C@H](CC(=O)O)NC(=O)[C@H](CO)NC(=O)[C@H](CCCNC(=N)N)N(C)C(=O)c2ccccc2CSC(C)(C)[C@@H](C(=O)N[C@@H](Cc2c[nH]c3ccccc23)C(=O)N[C@@H](Cc2ccc(O)cc2)C(=O)N(C)[C@@H](CCCCN)C(N)=O)NC1=O` [compound 153] (HELM PEPTIDE1{[meR].S.D.T.L.[Pen].W.Y.[meK].[am]}|CHEM1{[O=C(c1ccccc1C[*:2])[*:1]]}$PEPTIDE1,CHEM1,1:R1-1:R1|PEPTIDE1,CHEM1,6:R3-1:R2$$$V2.0), in series [1] (setting [3]), the half-life was > 3 h.

As for `CCCC[C@@H]1NC(=O)[C@H]([C@@H](C)O)NC(=O)[C@H](CC(=O)O)NC(=O)[C@H](CO)NC(=O)[C@H](CCCNC(=N)N)N(C)C(=O)c2ccccc2CSC(C)(C)[C@@H](C(=O)N[C@@H](Cc2c[nH]c3ccccc23)C(=O)N[C@@H](CCC(=O)O)C(=O)N[C@H](CCCCN)C(N)=O)NC1=O` [compound 154] (HELM PEPTIDE1{[meR].S.D.T.[Nle].[Pen].W.E.[dK].[am]}|CHEM1{[O=C(c1ccccc1C[*:2])[*:1]]}$PEPTIDE1,CHEM1,1:R1-1:R1|PEPTIDE1,CHEM1,6:R3-1:R2$$$V2.0), the half-life in series [1] (setting [3]) is < 0.333 h.

The values are drawn from patent US20260217767A1, “NOVEL A4B7 THIOETHER PEPTIDE DIMER ANTAGONISTS” (Protagonist Therapeutics, Inc., priority 2014, published 2026).
